Data: patent publication EP0023569A1, “Derivatives of carboxylic acids, their preparation and medicaments containing them” (Dr. Karl Thomae GmbH, priority 1979, dated 1981)

Tested on: weiblichen und männlichen Mäusen
Assay: Acute toxicity in mice after a single oral dose
Format: in vivo
Conditions: observation at least 7 days; for orientierende Toxizität: single dose p.o., suspension in 1% methylcellulose
Text: Bei weiblichen und männlichen Mäusen eigener Zucht mit dem Gewicht von 20-26 g wurde die toxische Wirkung der Substanzen nach oraler Gabe (Suspension in 1%iger Methylcellulose) einer einmaligen Dosis bei einer Nachbeobachtungszeit von mindestens 7 Tagen geprüft. Die nachfolgende Tabelle enthält die gefundenen Werte: […]

[1] = single dose of 2 000 mg/kg p.o.
[2] = single dose of 1 000 mg/kg p.o.

SMILES	Tieren gestorben [1]	orientierende Toxizität	Tieren gestorben [2]
O=C(O)c1ccc(CCNC(=O)c2cc(Cl)ccc2N2CCCCC2)cc1 [D, 4-[2-(5-Chlor-2-piperidino-benzoylamino)-äthy]benzoesäure]	0 von 6	> 2 000 mg/kg	–
CN(C)c1ccc(Cl)cc1C(=O)NCCc1ccc(C(=O)O)cc1 [A, 4-[2-(5-Chlor-2-dimethylamino-benzoylamino)-äthyl]benzoe-säure]	0 von 6	> 2 000 mg/kg	–
CC1CN(c2ccc(Cl)cc2C(=O)NCCc2ccc(C(=O)O)cc2)CC(C)O1 (centres unmarked) [T, 4-[-(5-Chlor-2-(2,6-dimethyl-morpholino)-benzoylamino)-äthyl]benzoesäure]	–	> 1 000 mg/kg	0 von 10
COC(=O)c1ccc(CCNC(=O)c2cc(Cl)ccc2N2CC(C)CC(C)C2)cc1 (centres unmarked) [H, 4-[2-(5-Chlor-2-(3,5-dimethyl-piperidino)-benzoylamino)-äthy]benzoesäure-methylester]	–	> 1 000 mg/kg	0 von 6
O=C(O)c1cc(Cl)ccc1N1CCC2(CC1)OCCO2 [KK, 5-Chlor-2-(1,4-dioxa-8-aza-spiro[4,5]decan-8-yl)-benzoe-säure]	0 von 10	> 2 000 mg/kg	–
CCOC(=O)c1ccc(CCNC(=O)c2cc(Br)ccc2N2CCCCCCC2)cc1 [V, 4-[2-(5-Brom-2-heptamethylenimino-benzoylamino)-äthyl]benzoesäure-äthylester]	–	> 1 000 mg/kg	0 von 10
O=C(O)c1ccc(CCNC(=O)c2cc(Br)ccc2N2CCCCCCC2)cc1 [W, 4-[2-(5-Brom-2-heptamethylenimino-benzoylamino)-äthyl]-benzoesäure]	–	> 1 000 mg/kg	0 von 6
CN(C)c1ccc(Br)cc1C(=O)NCCc1ccc(C(=O)O)cc1 [B, 4-[2-(5-Brom-2-dimethylamino-benzoylamino)-äthyl]benzoesäure]	–	> 1 000 mg/kg	0 von 5
O=C(O)c1ccc(CCNC(=O)c2cc(Cl)ccc2N2CCCCCC2)cc1 [O, 4-[2-(5-Chlor-2-hexamethylenimino-benzoylamino)-äthyl]-benzoesäure]	–	> 1 000 mg/kg	0 von 10
O=C(O)c1ccc(CCNC(=O)c2cc(Cl)ccc2N2CCCCCCCC2)cc1 [X, 4-[2-(5-Chlor-2-octamethylenimino-benzoylamino)-äthyl]-benzoesäure]	–	> 1 000 mg/kg	0 von 6
